# Entries after “also recorded” stand apart in the source; their conditions may differ. Marks after values point to notes of the source that are not given here. Where a SMILES comes first, the peptide text is derived from it. The star is where a group is joined. Cbz = O=C(OCc1ccccc1)*
# What was measured:
# Type in all cases: cell-based, pig
# CMAH gene = assay: CRISPR activity assay with TIDE analysis, CMAH target locus
# Experimental: Cell culture and transfection was performed as described in Example 4 section 4.1.2.
# The CRISPR activity assay was performed as described in Example 4 section 4.1.3 using the CMAH-specific CRISPRs (68rev, 165fw) and CMAH primers (CMAHF-[…] (SEQ ID NO: 48) and CMAHR-[…]3 (SEQ ID NO: 49)).
# [1] = tested on: parthenogenetically activated porcine oocytes; assay: Parthenogenetic oocyte activation (PG) embryo development in vitro; conditions: PG embryos; 5 μM MG132 from oocyte selection until activation
# porcine SCNT embryos = assay: Zona-free somatic cell nuclear transfer (SCNT) embryo development in vitro
# Experimental: Ovaries were sourced from pre-pubertal gilts slaughtered at the Ruakura abattoir (AgResearch, New Zealand). Cumulus-oocyte complexes (COCs) were recovered by follicular aspiration and matured in vitro (IVM) for 44 h. Two IVM systems to mature porcine oocytes were compared: biphasic (ESOF and LSOF) IVM1/2 medium containing 1 mM dibutyryl cyclic adenosine monophosphate for the first 20-24 h (Bagg et al., 2006; Somfai and Hirao, 2011) and FLI medium supplemented with FGF2, LIF and IGF1 for the entire IVM period (Yuan et al., 2017).
# COCs were denuded by vortexing with 0.1% hyaluronidase (Sigma) at 2000 rpm for about 60-90 sec. Oocytes were washed twice in HEPES-buffered TCM199 medium (H199)+10% FCS. Denuded oocytes were incubated for 10 min with 0.2M sucrose in H199+10% FCS. Oocytes that maintained a regular, round shape (but smaller diameter) along with a first polar body (1PB) were selected for use.
# For zona-free SCNT, pronase was used to remove the zona pellucida. Oocytes were washed thoroughly before staining DNA with 5 μg/mL H33342 plus 7.5 μg/mL cytochalasin B (all Sigma) for 5 min. A 24 μm outer diameter blunt-ended pipette was used for UV-assisted enucleation of metaphase II stage oocytes at 35° C.
# Donor cells (e.g. NZK1 kidney fibroblasts) were trypsinised to a single cell suspension after 5-7 days in medium with 0.5% FCS. Single cells were adhered to each enucleated cytoplast with the aid of 20 μg/mL phytohemagglutinin in H199+3 mg/mL BSA. […] Following fusion, reconstructed embryos were held in embryo culture medium without Ca+10% FCS+5 μg/mL cytochalasin B at 38.5° C. in 5% CO2 in air for 2-4 h before activation.
# To maintain high levels of maturation promoting factor-cyclin B complex in oocytes aiding nuclear reprogramming, some experiments compared the addition of 5 μM of the proteasome inhibitor MG132 (Sigma). This was added to media formulations from the time of sucrose selection of oocytes until activation of NT reconstructed embryos (Le Bourhis et al., 2010).
# Activation of reconstructed NT embryos was initiated with three direct current pulses of 1.0-1.5 kV/cm for 80 μs each, in buffer containing 0.1 mM calcium, ˜50-52 h after the start of IVM.
# Within 5 min of electrical stimulation, reconstructed embryos were transferred to culture medium (e.g. ESOF) supplemented with 2 mM 6-dimethylaminopurine+5 μg/mL cytochalasin B and cultured individually in 5 μL drops for 3 h at 38.5° C. In 5% CO2. Afterwards, embryos were washed thoroughly in HEPES SOF before in vitro culture for 6-7 days. […] Embryo development was assessed on Day 6 or 7 and the numbers of nuclei in resulting blastocysts determined in selected experiments.
# [2] = SCNT embryos, 5 μM MG132 from oocyte selection until activation
Compound,CRISPR activity compared to the second CMAH CRISPR 165fw (CMAH gene),Blastocyst Development Day 7 [1],Cleavage [1],"Benefit in terms of in vitro development following SCNT or PG (porcine SCNT embryos; 5 μM MG132 between oocyte selection and activation, preliminary experiment)",Blastocyst Development Day 7 (porcine SCNT embryos; [2]),Cleavage (porcine SCNT embryos; [2]),Fusion (porcine SCNT embryos; [2])
"68rev: guide RNA targeting exon 3 of CMAH, TAAGAATAAGAGCCGCCTGA (SEQ ID NO: 46) (listed as DNA, chemistry not given here)",higher activity,,,,,,
CC(C)C[C@@H](C=O)NC(=O)[C@H](CC(C)C)NC(=O)[C@H](CC(C)C)NC(=O)OCc1ccccc1 [MG132] (Cbz-Leu-Leu-Leu-aldehyde),,23%,100%,unable to show any benefit; also recorded: showed no benefit,11%^b,99%,49%
